Assay results from publication PMC11277489, “Novel Piperazine Derivatives of Vindoline as Anticancer Agents” (International Journal of Molecular Sciences, 2024).

How the values were obtained:
SF-539 = experiment: NCI60 one-dose screen (10 μM), CNS Cancer; type: cell-based, human; details: Homo sapiens; 10 μM; SF-539, CNS Cancer; read-out: Growth percent rate
HT29 = experiment: NCI60 one-dose screen (10 μM), Colon Cancer; type: cell-based; details: Homo sapiens, HT-29; 10 μM; HT29, Colon Cancer; read-out: Growth percent rate
SK-MEL-5 = experiment: NCI60 one-dose screen (10 μM), Melanoma; type: cell-based, human; details: for activity at 10 µM: Homo sapiens, SK-MEL-5, Melanoma, read-out: Growth percent rate
OVCAR-4 = experiment: NCI60 one-dose screen (10 μM), Ovarian Cancer; type: cell-based; details: Homo sapiens; 10 μM; OVCAR-4, Ovarian Cancer; read-out: Growth percent rate
SNB-19 = experiment: NCI60 one-dose screen (10 μM), CNS Cancer; type: cell-based; details: Homo sapiens; 10 μM; SNB-19, CNS Cancer; read-out: Growth percent rate
IGROV1 = experiment: NCI60 one-dose screen (10 μM), Ovarian Cancer; type: cell-based; details: Homo sapiens, IGROV-1; 10 μM; IGROV1, Ovarian Cancer; read-out: Growth percent rate
RXF 393 = experiment: NCI60 one-dose screen (10 μM), Renal Cancer; type: cell-based, human; details: Homo sapiens; 10 μM; RXF 393, Renal Cancer; read-out: Growth percent rate
786–0 = experiment: NCI60 one-dose screen (10 μM), Renal Cancer; type: cell-based; details: Homo sapiens; 10 μM; 786-0, Renal Cancer; read-out: Growth percent rate
COLO 205 = experiment: NCI60 one-dose screen (10 μM), Colon Cancer; type: cell-based, human; details: for activity at 10 µM: Homo sapiens, COLO 205, Colon Cancer, read-out: Growth percent rate
HL-60(TB) = experiment: NCI60 one-dose screen (10 μM), Leukemia; type: cell-based; details: Homo sapiens; 10 μM; HL-60(TB), Leukemia; read-out: Growth percent rate
NCI-H23 = experiment: NCI60 one-dose screen (10 μM), Non-small Cell Lung Cancer; type: cell-based; details: Homo sapiens; 10 μM; NCI-H23, Non-small Cell Lung Cancer; read-out: Growth percent rate
NCI-H522 = experiment: as above; type: cell-based; details: Homo sapiens; 10 μM; NCI-H522, Non-small Cell Lung Cancer; read-out: Growth percent rate
SK-MEL-28 = experiment: NCI60 one-dose screen (10 μM), Melanoma; type: cell-based; details: Homo sapiens; 10 μM; SK-MEL-28, Melanoma; read-out: Growth percent rate
UACC-257 = experiment: NCI60 one-dose screen (10 μM), Melanoma; type: cell-based; details: Homo sapiens; 10 μM; UACC-257, Melanoma; read-out: Growth percent rate
M14 = experiment: NCI60 one-dose screen (10 μM), Melanoma; type: cell-based; details: Homo sapiens; 10 μM; M14, Melanoma; read-out: Growth percent rate
U251 = experiment: NCI60 one-dose screen (10 μM), CNS Cancer; type: cell-based; details: Homo sapiens, U-251; 10 μM; U251, CNS Cancer; read-out: Growth percent rate
SF-295 = experiment: NCI60 one-dose screen (10 μM), CNS Cancer; type: cell-based; details: Homo sapiens; 10 μM; SF-295, CNS Cancer; read-out: Growth percent rate
MCF7 = experiment: NCI60 one-dose screen (10 μM), Breast Cancer; type: cell-based; details: Homo sapiens; 10 μM; MCF7, Breast Cancer; read-out: Growth percent rate
A498 = experiment: NCI60 one-dose screen (10 μM), Renal Cancer; type: cell-based; details: Homo sapiens; 10 μM; A498, Renal Cancer; read-out: Growth percent rate
HCT-15 = experiment: NCI60 one-dose screen (10 μM), Colon Cancer; type: cell-based; details: Homo sapiens; 10 μM; HCT-15, Colon Cancer; read-out: Growth percent rate
ACHN = experiment: NCI60 one-dose screen (10 μM), Renal Cancer; type: cell-based; details: Homo sapiens, 10 μM, Renal Cancer, read-out: Growth percent rate
SW-620 = experiment: NCI60 one-dose screen (10 μM), Colon Cancer; type: cell-based; details: Homo sapiens; 10 μM; SW-620, Colon Cancer; read-out: Growth percent rate
MOLT-4 = experiment: NCI60 one-dose screen (10 μM), Leukemia; type: cell-based, human; details: Homo sapiens; 10 μM; MOLT-4, Leukemia; read-out: Growth percent rate
HCT-116 = experiment: NCI60 one-dose screen (10 μM), Colon Cancer; type: cell-based; details: Homo sapiens; 10 μM; HCT-116, Colon Cancer; read-out: Growth percent rate
MALME-3M = experiment: NCI60 one-dose screen (10 μM), Melanoma; type: cell-based; details: Homo sapiens; 10 μM; MALME-3M, Melanoma; read-out: Growth percent rate
[1] = tested on: 60 human tumor cell lines (NCI60); experiment: NCI60 one-dose screen (10 μM), whole panel; type: cell-based; details: 10 μM; mean over 60 human cancer cell lines; read-out: Growth percent rate, Mean
OVCAR-8 = experiment: NCI60 one-dose screen (10 μM), Ovarian Cancer; type: cell-based; details: Homo sapiens; 10 μM; OVCAR-8, Ovarian Cancer; read-out: Growth percent rate
LOX IMVI = experiment: NCI60 one-dose screen (10 μM), Melanoma; type: cell-based, human; details: Homo sapiens; 10 μM; LOX IMVI, Melanoma; read-out: Growth percent rate
NCI-H322M = experiment: NCI60 one-dose screen (10 μM), Non-small Cell Lung Cancer; type: cell-based; details: Homo sapiens, 10 μM, Non-small Cell Lung Cancer, read-out: Growth percent rate
TK-10 = experiment: NCI60 one-dose screen (10 μM), Renal Cancer; type: cell-based; details: Homo sapiens; 10 μM; TK-10, Renal Cancer; read-out: Growth percent rate
HS 578T = experiment: NCI60 one-dose screen (10 μM), Breast Cancer; type: cell-based; details: Homo sapiens; 10 μM; HS 578T, Breast Cancer; read-out: Growth percent rate
MDA-MB-435 = experiment: NCI60 one-dose screen (10 μM), Melanoma; type: cell-based; details: Homo sapiens; 10 μM; MDA-MB-435, Melanoma; read-out: Growth percent rate
A549/ATCC = experiment: NCI60 one-dose screen (10 μM), Non-small Cell Lung Cancer; type: cell-based; details: Homo sapiens; 10 μM; A549/ATCC, Non-small Cell Lung Cancer; read-out: Growth percent rate
NCI-H460 = experiment: as above; type: cell-based; details: Homo sapiens; 10 μM; NCI-H460, Non-small Cell Lung Cancer; read-out: Growth percent rate
HOP-62 = experiment: as above; type: cell-based; details: Homo sapiens; 10 μM; HOP-62, Non-small Cell Lung Cancer; read-out: Growth percent rate
CAKI-1 = experiment: NCI60 one-dose screen (10 μM), Renal Cancer; type: cell-based; details: Homo sapiens; 10 μM; CAKI-1, Renal Cancer; read-out: Growth percent rate
HCC-2998 = experiment: NCI60 one-dose screen (10 μM), Colon Cancer; type: cell-based; details: Homo sapiens; 10 μM; HCC-2998, Colon Cancer; read-out: Growth percent rate
K-562 = experiment: NCI60 one-dose screen (10 μM), Leukemia; type: cell-based; details: Homo sapiens, K562; 10 μM; K-562, Leukemia; read-out: Growth percent rate
EKVX = experiment: NCI60 one-dose screen (10 μM), Non-small Cell Lung Cancer; type: cell-based; details: Homo sapiens, 10 μM, Non-small Cell Lung Cancer, read-out: Growth percent rate
SN12C = experiment: NCI60 one-dose screen (10 μM), Renal Cancer; type: cell-based; details: Homo sapiens, 10 μM, Renal Cancer, read-out: Growth percent rate
RPMI-8226 = experiment: NCI60 one-dose screen (10 μM), Leukemia; type: cell-based; details: Homo sapiens; 10 μM; RPMI-8226, Leukemia; read-out: Growth percent rate
SF-268 = experiment: NCI60 one-dose screen (10 μM), CNS Cancer; type: cell-based; details: Homo sapiens; 10 μM; SF-268, CNS Cancer; read-out: Growth percent rate

## CC[C@]12C=CCN3CC[C@@]4(c5ccc(OC)cc5N(C)[C@H]4[C@@](O)(C(=O)OC)[C@@H]1OC(=O)CCC(=O)N1CCN(C)CC1)[C@@H]32 [Compound 27]
SF-539
  activity at 10 µM: 100%
HT29
  activity at 10 µM: 96.7%
SK-MEL-5
  activity at 10 µM: 91.5%
OVCAR-4
  activity at 10 µM: 105%
SNB-19
  activity at 10 µM: 108%
IGROV1
  activity at 10 µM: 96.8%
RXF 393
  activity at 10 µM: 82.3%
786–0
  activity at 10 µM: 99.7%
COLO 205
  activity at 10 µM: 118%
HL-60(TB)
  activity at 10 µM: 112%
NCI-H23
  activity at 10 µM: 98.9%
NCI-H522
  activity at 10 µM: 84.5%
SK-MEL-28
  activity at 10 µM: 94.8%
UACC-257
  activity at 10 µM: 99.2%
M14
  activity at 10 µM: 114%
U251
  activity at 10 µM: 110%
SF-295
  activity at 10 µM: 97.9%
MCF7
  activity at 10 µM: 81%
A498
  activity at 10 µM: 105%
HCT-15
  activity at 10 µM: 103%
ACHN
  activity at 10 µM: 99.2%
SW-620
  activity at 10 µM: 105%
MOLT-4
  activity at 10 µM: 100%
HCT-116
  activity at 10 µM: 103%
MALME-3M
  activity at 10 µM: 112%
[1]
  activity at 10 µM: 99.5%
OVCAR-8
  activity at 10 µM: 99.6%
LOX IMVI
  activity at 10 µM: 93%
NCI-H322M
  activity at 10 µM: 110%
TK-10
  activity at 10 µM: 91.9%
HS 578T
  activity at 10 µM: 70.8%
MDA-MB-435
  activity at 10 µM: 121%
A549/ATCC
  activity at 10 µM: 94.2%
NCI-H460
  activity at 10 µM: 102%
HOP-62
  activity at 10 µM: 119%
CAKI-1
  activity at 10 µM: 96.6%
HCC-2998
  activity at 10 µM: 86.5%
K-562
  activity at 10 µM: 124%
EKVX
  activity at 10 µM: 90.7%
SN12C
  activity at 10 µM: 86.7%
RPMI-8226
  activity at 10 µM: 94.5%
SF-268
  activity at 10 µM: 99.5%

## CC[C@]12C=CCN3CC[C@@]4(c5ccc(OC)cc5N(C)[C@H]4[C@@](O)(C(=O)OC)[C@@H]1OC(=O)CCC(=O)N1CCN(c4ccc(C(F)(F)F)cc4)CC1)[C@@H]32 [Compound 28]
SF-539
  activity at 10 µM: 8.28%
HT29
  activity at 10 µM: -50.4%
SK-MEL-5; 10 μM one-dose, SK-MEL-5 melanoma, negative = lethality
  growth percent rate: −92.46%
SK-MEL-5
  activity at 10 µM: -92.5%
OVCAR-4
  activity at 10 µM: 6.5%
SNB-19
  activity at 10 µM: 16.2%
IGROV1
  activity at 10 µM: -42.3%
RXF 393
  activity at 10 µM: -12.9%
786–0
  activity at 10 µM: 20.7%
COLO 205; 10 μM one-dose, COLO-205 colon cancer, negative = lethality
  growth percent rate: −90.33%
COLO 205
  activity at 10 µM: -90.3%
HL-60(TB)
  activity at 10 µM: 4.32%
NCI-H23
  activity at 10 µM: 8.32%
NCI-H522
  activity at 10 µM: -9.16%
SK-MEL-28
  activity at 10 µM: 15%
UACC-257
  activity at 10 µM: 19.5%
M14
  activity at 10 µM: -66.8%
U251
  activity at 10 µM: 12.4%
SF-295
  activity at 10 µM: 1.73%
MCF7
  activity at 10 µM: 3.97%
A498
  activity at 10 µM: 21.6%
HCT-15
  activity at 10 µM: 6.71%
ACHN
  activity at 10 µM: -3.87%
SW-620
  activity at 10 µM: 20.7%
MOLT-4
  activity at 10 µM: 18.7%
HCT-116
  activity at 10 µM: 29.4%
MALME-3M
  activity at 10 µM: 2.45%
[1]
  activity at 10 µM: -3.07%
OVCAR-8
  activity at 10 µM: 10.7%
LOX IMVI
  activity at 10 µM: -75.8%
NCI-H322M
  activity at 10 µM: 43.7%
TK-10
  activity at 10 µM: -5.03%
HS 578T
  activity at 10 µM: 20.1%
MDA-MB-435
  activity at 10 µM: 5.7%
A549/ATCC
  activity at 10 µM: 13.6%
NCI-H460
  activity at 10 µM: 1.83%
HOP-62
  activity at 10 µM: 30.4%
CAKI-1
  activity at 10 µM: -10.2%
HCC-2998
  activity at 10 µM: -75.2%
K-562
  activity at 10 µM: 16.9%
EKVX
  activity at 10 µM: 20.9%
SN12C
  activity at 10 µM: 9.74%
RPMI-8226
  activity at 10 µM: 8.8%
SF-268
  activity at 10 µM: 13.1%
